This note sets out measurements from PubChem BioAssay AID328 (DTP/NCI, 2004).

Several values for one entry are separate records, joined by “and”; a condition that tells them apart may be missing. Equal values may be shown once. Toxic doses and inconclusive results are not listed. Residues, ends and D or L forms follow the SMILES beside them. *: point of attachment. For = O=C*

This experiment has as its system BDF1 mice, P388 leukemia ip, median survival T/C. The experiment is described as follows: NCI In Vivo Anticancer Drug Screen. Data for tumor model P388 Leukemia (intraperitoneal) in B6D2F1 (BDF1) mice. The settings on record: endpoint: median survival time, higher = longer survival. Summed up: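 T/C = treated-group survival ÷ vehicle-control survival; tumour transplanted into mice before dosing.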

The mark [1] stands for this setting: dose: 100.0 mg/kg/injection, schedule: Q04DX003 (ip), vehicle: saline.
Setting [2] is: dose: 100.0 mg/kg/injection, schedule: Q01DX009 (ip), vehicle: saline with Tween-80.
Setting [3] is: dose: 200.0 mg/kg/injection, schedule: Q01DX009 (ip), vehicle: saline with Tween-80.

For `CC(=O)OC12COC1CC(O)C1(C)C(=O)C(O)C3=C(C)C(O)CC(O)(C(OC(=O)c4ccccc4)C21)C3(C)C` (stereo not given), the T/C was 100 % of control (dose: 2.0 mg/kg/injection, schedule: Q01DX009 (ip), vehicle: alcohol); 95 % of control (dose: 4.0 mg/kg/injection, schedule: Q01DX009 (ip), vehicle: alcohol); 100 % of control (dose: 8.0 mg/kg/injection, schedule: Q01DX009 (ip), vehicle: alcohol); 95 % of control (dose: 16.0 mg/kg/injection, schedule: Q01DX009 (ip), vehicle: alcohol).

As for `CN(C)c1cc(F)c(C=O)cc1[N+](=O)[O-]`, the T/C by setting is: under setting [1], 95 % of control; (dose: 200.0 mg/kg/injection, schedule: Q04DX003 (ip), vehicle: saline) 100 % of control; (dose: 400.0 mg/kg/injection, schedule: Q04DX003 (ip), vehicle: saline) 104 % of control.

Regarding `COC(=O)C1OC(C)(C)OC1C(=O)OC` (stereo not given), the T/C reads like this: (dose: 100.0 mg/kg/injection, schedule: Q04DX002 (ip), vehicle: saline with Tween-80) 90 % of control; (dose: 200.0 mg/kg/injection, schedule: Q04DX002 (ip), vehicle: saline with Tween-80) 97 % of control; (dose: 400.0 mg/kg/injection, schedule: Q04DX002 (ip), vehicle: saline with Tween-80) 90 % of control.

Regarding `CC([OH2+])CNCCN.CC([OH2+])CNCCN.[Cu+2].[O-][Cl+3]([O-])([O-])[O-]` (stereo not given), the T/C is, setting by setting: (dose: 12.5 mg/kg/injection, schedule: Q01DX009 (ip), vehicle: saline) 108 % of control; (dose: 25.0 mg/kg/injection, schedule: Q01DX009 (ip), vehicle: saline) 115 % of control; (dose: 50.0 mg/kg/injection, schedule: Q01DX009 (ip), vehicle: saline) 114 % of control.

For `CC1CC(C)(C)N=C(CCC[N+](=O)[O-])O1` (stereo not given), the T/C (dose: 50.0 mg/kg/injection, schedule: Q04DX003 (ip), vehicle: saline sonified) is 105 % of control; the T/C (dose: 100.0 mg/kg/injection, schedule: Q04DX003 (ip), vehicle: saline sonified) is 105 % of control; the T/C (dose: 200.0 mg/kg/injection, schedule: Q04DX003 (ip), vehicle: saline sonified) is 105 % of control.

Consider `CCOC(=O)c1c(C)c2c(n1C)CCc1cn[nH]c1-2`, for which the T/C runs as follows: (dose: 50.0 mg/kg/injection, schedule: Q01DX009 (ip), vehicle: Klucel (hydroxypropylcellulose) (HPC)) 103 % of control; (dose: 100.0 mg/kg/injection, schedule: Q01DX009 (ip), vehicle: Klucel (hydroxypropylcellulose) (HPC)) 120 % of control; (dose: 200.0 mg/kg/injection, schedule: Q01DX009 (ip), vehicle: Klucel (hydroxypropylcellulose) (HPC)) 106 % of control.

In the case of `C=CCN(CC=C)CC=C`, the T/C is 111 % of control (dose: 25.0 mg/kg/injection, schedule: Q04DX003 (ip), vehicle: saline); 108 % of control (dose: 50.0 mg/kg/injection, schedule: Q04DX003 (ip), vehicle: saline); 111 % of control under setting [1].

Turning to `CC[C@@]1(O)C[C@H](OC2CC(N(C)C)C(OC3CC(O)C(OC4CCC(=O)C(C)O4)C(C)O3)C(C)O2)c2c(cc3c(c2O)C(=O)c2c(O)ccc(O)c2C3=O)[C@H]1C(=O)OC` (stereo not given in full), the T/C by setting is: (dose: 0.39 mg/kg/injection, schedule: Q01DX009 (ip), vehicle: water) 111 % of control; (dose: 0.5 mg/kg/injection, schedule: Q01DX003 (ip), vehicle: saline) 163 % of control; (dose: 0.5 mg/kg/injection, schedule: Q01DX009 (ip), vehicle: water) 117 % of control; (dose: 0.65 mg/kg/injection, schedule: Q01DX009 (ip), vehicle: water) 152 % of control; (dose: 0.75 mg/kg/injection, schedule: Q01DX010 (ip), vehicle: saline) 170 % of control; (dose: 1.0 mg/kg/injection, schedule: Q01DX003 (ip), vehicle: saline) 190 % of control. For the same compound, the T/C by setting is: (dose: 1.0 mg/kg/injection, schedule: Q01DX009 (ip), vehicle: saline) 154 % of control; (dose: 1.0 mg/kg/injection, schedule: Q01DX009 (ip), vehicle: water) 86 % of control; (dose: 1.0 mg/kg/injection, schedule: Q04DX003 (ip), vehicle: water) 102 % of control; (dose: 1.08 mg/kg/injection, schedule: Q01DX009 (ip), vehicle: water) 177 % of control and 180 % of control; (dose: 1.5 mg/kg/injection, schedule: Q01DX010 (ip), vehicle: saline) 175 % of control; (dose: 1.73 mg/kg/injection, schedule: Q04DX003 (ip), vehicle: other) 155 % of control. Also, the T/C is 225 % of control and 200 % of control (dose: 1.8 mg/kg/injection, schedule: Q01DX009 (ip), vehicle: water); 109 % of control (dose: 2.0 mg/kg/injection, schedule: Q01DX003 (ip), vehicle: saline); 191 % of control (dose: 2.0 mg/kg/injection, schedule: Q01DX009 (ip), vehicle: saline); 90 % of control (dose: 2.0 mg/kg/injection, schedule: Q01DX009 (ip), vehicle: water); 119 % of control (dose: 2.0 mg/kg/injection, schedule: Q04DX003 (ip), vehicle: water); 186 % of control (dose: 2.88 mg/kg/injection, schedule: Q04DX003 (ip), vehicle: other). Also, the T/C (dose: 3.0 mg/kg/injection, schedule: Q01DX010 (ip), vehicle: saline) was 90 % of control; the T/C (dose: 4.8 mg/kg/injection, schedule: Q04DX003 (ip), vehicle: other) is 109 % of control; the T/C (dose: 5.0 mg/kg/injection, schedule: Q04DX003 (ip), vehicle: water) is 203 % of control; the T/C (dose: 8.44 mg/kg/injection, schedule: Q01DX001 (ip), vehicle: water) is 158 % of control; the T/C (dose: 10.0 mg/kg/injection, schedule: Q04DX003 (ip), vehicle: water) is 88 % of control; the T/C (dose: 11.25 mg/kg/injection, schedule: Q01DX001 (ip), vehicle: water) is 152 % of control. Further, the T/C was 117 % of control (dose: 13.33 mg/kg/injection, schedule: Q04DX003 (ip), vehicle: water); 100 % of control (dose: 15.0 mg/kg/injection, schedule: Q01DX001 (ip), vehicle: water); 50 % of control (dose: 20.0 mg/kg/injection, schedule: Q01DX001 (ip), vehicle: water).

Regarding `CC1CCC2=C(C1)S(=O)(=O)CC2` (stereo not given), the T/C (dose: 6.25 mg/kg/injection, schedule: Q04DX002 (ip), vehicle: saline) was 103 % of control; the T/C (dose: 12.5 mg/kg/injection, schedule: Q04DX002 (ip), vehicle: saline) was 94 % of control; the T/C (dose: 25.0 mg/kg/injection, schedule: Q04DX002 (ip), vehicle: saline) is 103 % of control.

As to `COC(=O)C(CC(C)C)NC(=O)C(Cc1ccc(O)cc1)NC=O` (stereo not drawn) (For-Tyr-Leu-OMe; configuration not given here), the T/C by setting is: under setting [2], 99 % of control; (dose: 100.0 mg/kg/injection, schedule: Q04DX003 (ip), vehicle: saline with Tween-80) 105 % of control; under setting [3], 115 % of control; (dose: 200.0 mg/kg/injection, schedule: Q04DX003 (ip), vehicle: saline with Tween-80) 110 % of control; (dose: 400.0 mg/kg/injection, schedule: Q01DX009 (ip), vehicle: saline with Tween-80) 106 % of control; (dose: 400.0 mg/kg/injection, schedule: Q04DX003 (ip), vehicle: saline with Tween-80) 112 % of control.

As for `COc1cc(/C=C2\SC(=S)N(CCCN3CCOCC3)C2=O)ccc1O`, the T/C runs as follows: (dose: 12.5 mg/kg/injection, schedule: Q01DX009 (ip), vehicle: suspension in saline) 86 % of control; (dose: 25.0 mg/kg/injection, schedule: Q01DX009 (ip), vehicle: suspension in saline) 101 % of control; (dose: 50.0 mg/kg/injection, schedule: Q01DX009 (ip), vehicle: suspension in saline) 99 % of control.

As to `CCSC(CC(C)=O)c1ccc(Cl)c(Cl)c1` (stereo not given), the T/C was 104 % of control (dose: 50.0 mg/kg/injection, schedule: Q01DX009 (ip), vehicle: saline with Tween-80); 107 % of control under setting [2]; 118 % of control under setting [3].

On to `CN=NNc1ccccc1`, for which the T/C is, setting by setting: (dose: 66.0 mg/kg/injection, schedule: Q04DX003 (ip), vehicle: saline with Tween-80) 120 % of control; (dose: 75.0 mg/kg/injection, schedule: Q01DX009 (ip), vehicle: other) 118 % of control; (dose: 75.0 mg/kg/injection, schedule: Q04DX003 (ip), vehicle: saline with Tween-80) 120 % of control; (dose: 150.0 mg/kg/injection, schedule: Q04DX003 (ip), vehicle: saline with Tween-80) 100 % of control; (dose: 225.0 mg/kg/injection, schedule: Q04DX003 (ip), vehicle: saline with Tween-80) 95 % of control; (dose: 300.0 mg/kg/injection, schedule: Q04DX003 (ip), vehicle: saline with Tween-80) 100 % of control.
